Experiment: gradient 5% acetonitrile 3 min, to 50% in 2 min, to 85% in 15 min, held 3 min, 100 µL/min
Details: column: Zorbax Extend-C18 2.1 x 50 mm; eluents: water / acetonitrile, 0.1% formic acid
Method in brief: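 In both positive and negative ionization mode, a quadrupole time-of-flight mass spectrometer coupled to HPLC analyzed pure standards run in mixtures of ~100 molecules. The Zorbax Extend-C18 column (2.1 × 50 mm, 1.8 μm) was operated at 100 μL/min with water and acetonitrile, each containing 0.1% formic acid. The dead volume was 40 μL and the dwell volume 900 μL. Retention time came from adduct peaks that were computationally picked and individually inspected by hand.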

SMILES | RP-LC retention time [s]
CCCC(=O)NCCn1c(=O)n(Cc2ccc(C)cc2)c2cccnc21 | 759
CC(C)CC(NC(=O)c1ccc2c(c1)OCO2)C(=O)Nc1nc2ccccc2[nH]1 (stereo not drawn) | 710
O=C(C1CCCN(c2ncnc3c2nc2n3CCCCC2)C1)N1CCN(c2ncccn2)CC1 (stereo not drawn) | 690
Cc1nc2ccccc2nc1NS(=O)(=O)c1ccc(N)cc1 | 764
COc1cccc(CNC(=O)N2CCCC(Cn3cnc4cccnc43)C2)c1 (stereo not drawn) | 654
CC(=O)c1cccc(NC(=O)C(C)Oc2ccc(=O)n(-c3ccc(F)cc3)n2)c1 (stereo not drawn) | 688
COc1ccc(C2CC(=O)N(c3ccc(C)cc3C)C(=O)C2)cc1 | 941
O=C(Nc1ccc(CC(=O)N2CCC(O)CC2)cc1)C1CCC1 | 588
CCc1cccc(NC(=O)C2CC(=O)N(c3ccc4c(c3)CCN4C(C)=O)C2)c1 (stereo not drawn) | 707
Cc1nn(CC(=O)NCc2ccc(F)cc2Cl)c(=O)c2noc(C)c12 | 721
O=C1NCCCn2cc(S(=O)(=O)NCc3ccc(F)cc3Cl)cc21 | 686
CCc1noc(NC(C)=O)c1-c1ccc(C)c(S(=O)(=O)Nc2ccc(F)cc2C)c1 | 848
COc1ccc(-c2noc(C3CC(=O)N(c4ccc(C)c(F)c4)C3)n2)cc1OC (stereo not drawn) | 984
CCc1ccc(NC(=O)c2cn(-c3cc(-c4nc(CC)no4)ccn3)cn2)cc1 | 939
O=C(CSc1nnc(-c2ccccc2F)o1)N1CCCc2ccccc21 | 872
Cc1ccc(NC(=O)COc2nc(C)nc3ccccc23)c(Br)c1 | 874
CCn1nnc2ccc(-c3noc(-c4ccccc4)n3)cc21 | 1040
Cc1ccc(Cl)cc1N(C)S(=O)(=O)c1cc2n(c1)CCCN(C)C2=O | 794
c1cc(N2CCCCC2)ncc1-c1noc(CN2CCC3(CC2)OCCO3)n1 | 637
COC(=O)c1ccc(OC)c(Cn2cnc3c(-c4ccccc4C)csc3c2=O)c1 | 1060
O=C(CN1C(=O)C(C(=O)N2CCCC2)Sc2ccccc21)Nc1ccc(F)cc1 (stereo not drawn) | 978
COc1ccc(C(O)Cn2ccn3nc(-c4ccc(C)c(C)c4)cc3c2=O)cc1OC (stereo not drawn) | 881

SMILES | RP-LC retention time [s]
Nc1nc(N)c2nc(-c3cccc(O)c3)c(-c3cccc(O)c3)nc2n1 | 630
Cc1ccc(-n2c(N3CCCC(C(=O)NCc4ccc(Cl)cc4)C3)nc3ccsc3c2=O)cc1 (stereo not drawn) | 956
O=C(c1nnc(-c2ccc(S(=O)(=O)N3CCCC3)cc2)o1)N1CCCCCC1 | 902
Cc1ccccc1CC(=O)N1CCCC1c1c(C)noc1C (stereo not drawn) | 797
Cc1cccc(-c2nc(C)c(CCNC(=O)C(=O)Nc3ccc([N+](=O)[O-])cc3)s2)c1 | 1020
CCOc1ccc(NC(=O)Cn2c(N3CCOCC3)nc(COC)cc2=O)cc1 | 967
O=C(Cn1nc2n(c1=O)CCCC2)Nc1cccc(F)c1 | 638
CN(c1nccn2c(=O)n(CC(=O)Nc3ccccc3F)nc12)C1CCCCC1 | 748
Cc1ccsc1C(=O)NC1CCN(c2cc(-c3ccc(F)cc3)[nH]n2)C1 (stereo not drawn) | 670
CN(C)c1ccc2c(c1)CN(C(=O)Cn1c(=O)oc3ccccc31)CCO2 | 621
CC(C)CC(NC(=O)OCc1ccccc1)C(=O)NC(Cc1c[nH]c2ccccc12)C(=O)O (stereo not drawn) | 926
CCOc1ccc(OCC)c(N2C=C(C#N)S(=O)(=O)c3cc(F)ccc32)c1 | 1030
Cc1cc(C)cc(NC(=O)Cn2nc(N3CCOCC3)c3ccccc3c2=O)c1 | 840
COc1ccccc1CNc1ncc(C(=O)O)c(C(C)C)n1 | 898
COc1ccc(C2(C(=O)N3CCCC(c4nc(-c5ccc(NC(C)=O)cc5)no4)C3)CC2)cc1 (stereo not drawn) | 835
CC(C)NC(=O)c1cc(N(C)C)nc2c(Cl)cccc12 | 816
Cc1ccccc1OCc1nc(C2CN(C(=O)NC(C)C)C2)no1 | 804
Cc1cc(Cl)ccc1OCC(=O)Nc1nc(-c2ccc(Br)cc2)cs1 | 1310
COc1ccc(S(=O)(=O)N2CCCC(Cn3cnc4cccnc43)C2)cc1OC (stereo not drawn) | 773
CCN(CC)CCOCCOC(=O)C1(c2ccccc2)CCCC1 | 810
CCCOc1cc(N2CCN(C(=O)c3ccc4c(c3)OCO4)CC2)nc(C)n1 | 608
CN(C)C(=O)c1cn(C2CN(C(=O)CCc3c[nH]c4ccccc34)C2)nn1 | 652

SMILES | RP-LC retention time [s]
Cc1ccc(-c2noc(-c3nc(-c4cccnc4)no3)n2)cc1 | 1090
O=C(COc1ccccc1)N1CCCCC1CCN1CCCCC1 (stereo not drawn) | 635
COc1cccc(NC(=O)Cn2nc3cc(C)nc(Nc4ccc(F)c(C)c4)n3c2=O)c1 | 1040
COc1ccc(/C=C/c2ccc3c(c2)OCCO3)cc1O | 868
COc1ccc(-c2c(C(=O)N(C)Cc3ccco3)nc3ccccn23)cc1 | 698
COC[C@@H]1CN(c2cnccn2)C[C@H]1C(=O)NCC1CC1 | 594
Cc1cccc(NC(=O)N(C)CCc2noc(COc3cccc(C)c3)n2)c1 | 970
CCCn1c(=O)sc2cc(S(=O)(=O)N3CCN(C(=O)c4ccnn4C)CC3)ccc21 | 792
COc1ccc(-c2nc3ccccn3c2Nc2ccc3c(c2)OCCO3)cc1 | 719
CCCN1C(=O)C2CCC(=O)N2c2ccc(C(=O)NCCCN3CCOCC3)cc21 (stereo not drawn) | 570
Cc1sc(-c2noc(C3CCC3)n2)cc1S(=O)(=O)N1CCC(C(=O)NCC2CCCO2)CC1 (stereo not drawn) | 937
CCNC(=O)N1CCCC(c2cccc(C(=O)NCc3ccc(F)cc3F)c2)C1 (stereo not drawn) | 804
CC(O)(CCc1ccccc1)CNC(=O)c1ccc(F)cc1 (stereo not drawn) | 758
Cc1[nH]nc(-c2ccc(S(=O)(=O)N3CCN(c4ccccn4)CC3)s2)c1C | 662
Cc1noc(C)c1-c1ccc(S(=O)(=O)NC2CCCCC2)cc1 | 959
CC1CCCC(NC(=O)C2CCCN(C(=O)c3cc4sccc4n3C)C2)C1C (stereo not drawn) | 991
Cc1cc(F)ccc1NC(=O)C1CCCN1S(=O)(=O)c1cc2c(cc1C)NC(=O)C(C)O2 (stereo not drawn) | 812
CCCn1ccc2sc(C)c(C(=O)NCc3cccc(OCC)c3)c2c1=O | 939
CCOc1ccc2c(n1)CCN(C(=O)NCCOC)C2 | 624
O=C(Nc1nnc(Cc2ccccc2)s1)C1CCN(C(=O)c2cccc(F)c2)CC1 | 798
O=C(Cc1cccs1)Nc1ccc(N2CCN(C3CCCCC3)C2=O)nc1 | 804
O=C([C@@H]1C[C@H](F)CN1S(=O)(=O)c1ccc(F)c(Cl)c1)N1CCc2ccccc2C1 | 997

SMILES | RP-LC retention time [s]
COCCN(CC1(C)CCOCC1)C(=O)c1ccc(Cl)cc1 | 838
CCc1ccc(CNC(=O)c2ccc3ncnc(N4CCCC4)c3c2)cc1 | 697
CC(C)N1CCN(Cc2ccc(C(=O)NCc3ccc(C(F)(F)F)cc3)cc2)C(=O)C1=O | 741
O=C(Cc1nnc(-c2ccc3ncccc3c2)o1)N1CCN(c2ccccc2F)CC1 | 753
CC1CCCN(S(=O)(=O)c2ccc(-n3cnc(C(=O)NCC4CC4)c3)nc2)C1 (stereo not drawn) | 902
Cc1ccc(S(=O)(=O)N2CCC(n3cnc4c(C)cccc4c3=O)CC2)cc1C | 1050
O=C(c1cn2cc(Cl)ccc2n1)N1CCN(c2ccc(F)cc2)CC1 | 876
COc1ccc(OC)c(-c2ccc(=O)n(CCc3nc(-c4cccc(F)c4)no3)n2)c1 | 974
Cc1cccc(N2C(=O)CN(Cc3ccc(F)cc3)[C@H]3CS(=O)(=O)C[C@H]32)c1 | 812
CCn1c(=O)c(N2CCC(NC(=O)NCCc3ccccc3)CC2)nc2cccnc21 | 824
CCCCOc1ccc(NC(=O)c2cc(=O)c3cc(Br)ccc3o2)c2cccnc12 | 811
COc1ccc(NC(=O)Nc2c(-c3cccc(C)c3)nc3ccccn23)c(OC)c1 | 696
CCCOc1ccc(-c2nnc3sc(-c4ccncc4)nn23)cc1 | 642
Cc1oc(C2CCN(C(=O)Nc3ccc(Cl)cc3F)CC2)nc1C(=O)N1CCCCC1 | 885
Cc1nc(-c2cc(S(=O)(=O)NCc3ccc(OC(C)C)cc3)c(C)s2)cs1 | 1080
O=C(CN1C(=O)COc2ccc(C(=O)N3CCCCC3)cc21)NC1CCCCCC1 | 782
Cc1nc(N2CCOCC2)c2c(C(=O)N3CCN(c4ccc(Cl)cc4)CC3)c(C)oc2n1 | 895
CCC(=O)N1CCCN(C2=NS(=O)(=O)C(c3ccc(F)cc3)=C2C)CC1 | 698
O=C(CSc1ccc(N2CCCC(C(=O)NC3CC3)C2)nn1)Nc1cc(F)ccc1Cl (stereo not drawn) | 660
O=C(O)c1nnn(-c2ccc(F)cc2)c1-c1ccncc1 | 612
O=C(CCn1nnc2cc(-c3noc(Cc4cccc(F)c4)n3)ccc21)N1CCCC1 | 855
C=Cc1ccc(CN2CCCN(c3ncccc3-c3nc(CCC)no3)CC2)cc1 | 766

Source: the METLIN SMRT retention time set (Domingo-Almenara et al. 2019)
